Data: patent US20020049223A1, “Quinoline and naphthyridine carboxylic acid antibacterials” (priority 1999, published 2002)

Key:
Assay in all cases: Assay B: in vitro antibacterial activity, broth microdilution MIC (NCCLS)
Format in all cases: cell-based
[1] = tested on: Enterococcus faecalis PIU 1967; settings: Table 2, Assay B, cation-adjusted Mueller Hinton broth, 35° C., 16 to 20 hr; code B = Enterococcus faecalis PIU 1967; unit assumed
Description: (§1) Assay B. Determination of Biological Activity In Vitro Assay of Antibacterial Activity
(§2) Representative compounds of the invention were assayed in vitro for antibacterial activity. The susceptibilities of aerobic, nonfastidious species were determined visually by broth microdilution as described by the National Committee for Clinical Laboratory Standards (NCCLS) (National Committee for Clinical Laboratory Standards. 1997. Methods for dilution antimicrobial susceptibility tests for bacteria that grow aerobically. Approved standard M7-A4. National Committee for Clinical Laboratory Standards. Wayne, Pa.). In brief, serial two-fold dilutions of test compounds were made in cation-adjusted Mueller Hinton broth at two-times the final concentration. Inocula were prepared from overnight cultures of test strains. Tests were inoculated with a suspension of bacteria in Mueller Hinton broth to achieve a final density of approximately 5×10^5 CFU/mL. Tests were incubated at 35° C. in ambient air for 16 to 20 hr. Minimum Inhibitory Concentrations (MICs) were determined as the lowest drug concentration completely inhibiting growth. Ciprofloxacin was included as a control. For testing S. pneumoniae, the cation-adjusted Mueller Hinton broth was supplemented with 3% lysed horse blood and the incubation period was extended to 20 to 24 hr. For testing H. influenzae, the cation-adjusted Mueller Hinton broth was supplemented with 5 g/L yeast extract, […] and 15 mg/L NAD and incubation was extended to 20 to 24 hr..

Escherichia coli JUHL = settings: Table 2, Assay B, cation-adjusted Mueller Hinton broth, 35° C., 16 to 20 hr; code D = Escherichia coli JUHL; unit assumed
Description: as §1, §2

[2] = tested on: Haemophilus influenzae DILL AMP R; settings: Table 2, Assay B, Mueller Hinton broth with yeast extract, hematin and NAD, 20 to 24 hr; code E = Haemophilus influenzae DILL AMP R; unit assumed
Description: as §1, §2

[3] = tested on: Staphylococcus aureus ATCC 6538P; settings: Table 2, Assay B, cation-adjusted Mueller Hinton broth, 35° C., 16 to 20 hr; code A = Staphylococcus aureus ATCC 6538P; unit assumed
Description: as §1, §2

[4] = tested on: Streptococcus pneumoniae ATCC 6303; settings: Table 2, Assay B, Mueller Hinton broth with 3% lysed horse blood, 20 to 24 hr; code F = Streptococcus pneumoniae ATCC 6303; unit assumed
Description: as §1, §2

Antibacterial Activity (MIC's), B [1] [µg/mL] | Antibacterial Activity (MIC's), D (Escherichia coli JUHL) [µg/mL] | Antibacterial Activity (MIC's), E [2] [µg/mL] | Antibacterial Activity (MIC's), A [3] [µg/mL] | Antibacterial Activity (MIC's), F [4] [µg/mL] | SMILES
0.125 | 0.5 | 0.06 | 0.08 | 0.125 | COc1c(-c2cc3c(s2)CCC(C)C3=O)ccc2c(=O)c(C(=O)O)cn(C3CC3)c12 (centres unmarked) [Example 106, 1-cyclopropyl-8-methoxy-7-(5-methyl-4-oxo-4,5,6,7-tetrahydro-1-benzothien-2-yl)-4-oxo-1,4-dihydro-3-quinolinecarboxylic acid]
0.03 | 0.125 | ≤ 0.004 | ≤ 0.004 | 0.125 | COc1c(-c2cc3c(s2)CCC(F)(F)C3O)ccc2c(=O)c(C(=O)O)cn(C3CC3)c12 (centres unmarked) [Example 204, 1-cyclopropyl-7-(5,5-difluoro-4-hydroxy-4,5,6,7-tetrahydro-1-benzothien-2-yl)-8-methoxy-4-oxo-1,4-dihydro-3-quinolinecarboxylic acid]
0.015 | 0.015 | ≤ 0.004 | ≤ 0.004 | ≤ 0.004 | Cc1c(-c2cc3c(s2)CCCC3N)c(F)cc2c(=O)c(C(=O)O)cn(C3CC3)c12.Cl (centres unmarked) [Example 321, 7-(4-amino-4,5,6,7-tetrahydro-1-benzothien-2-yl)-1-cyclopropyl-6-fluoro-8-methyl-4-oxo-1,4-dihydroquinoline-3-carboxylic acid hydrochloride]
0.125 | 1 | 0.125 | 0.015 | 0.5 | COc1c(-c2cc3c(s2)CCC(C)(CO)C3=O)ccc2c(=O)c(C(=O)O)cn(C3CC3)c12 (centres unmarked) [Example 207, 1-cyclopropyl-7-(5-(hydroxymethyl)-5-methyl-4-oxo-4,5,6,7-tetrahydro-1-benzothien-2-yl)-8-methoxy-4-oxo-1,4-dihydro-3-quinolinecarboxylic acid]
0.06 | 0.06 | 0.03 | 0.03 | 0.03 | CNC1CCCc2sc(-c3c(F)cc4c(=O)c(C(=O)O)cn(C5CC5)c4c3C)cc21.Cl (centres unmarked) [Example 317, 1-cyclopropyl-6-fluoro-8-methyl-7-(4-(methylamino)-4,5,6,7-tetrahydro-1-benzothien-2-yl)-4-oxo-1,4-dihydroquinoline-3-carboxylic acid hydrochloride]
0.125 | 0.03 | 0.015 | 0.03 | 0.03 | Cl.NC1CCCc2cc(-c3ccc4c(=O)c(C(=O)O)cn(C5CC5)c4c3)sc21 (centres unmarked) [Example 288, 7-(7-amino-4,5,6,7-tetrahydro-1-benzothien-2-yl)-1-cyclopropyl-4-oxo-1,4-dihydroquinoline-3-carboxylic acid hydrochloride]
0.25 | 0.5 | 0.25 | 0.03 | 0.06 | COc1c(-c2cc3c(s2)C(N)CC(C)(C)C3)ccc2c(=O)c(C(=O)O)cn(C3CC3)c12.Cl (centres unmarked) [Example 268, 7-(7-amino-5,5-dimethyl-4,5,6,7-tetrahydro-1-benzothien-2-yl)-1-cyclopropyl-8-methoxy-4-oxo-1,4-dihydroquinoline-3-carboxylic acid hydrochloride]
0.125 | 0.03 | 0.015 | 0.015 | 0.03 | CNC1CCCc2sc(-c3c(F)cc4c(=O)c(C(=O)O)cn(C5CC5)c4c3F)cc21.Cl (centres unmarked) [Example 291, 1-cyclopropyl-6,8-difluoro-7-(4-(methylamino)-4,5,6,7-tetrahydro-1-benzothien-2-yl)-4-oxo-1,4-dihydroquinoline-3-carboxylic acid hydrochloride]
0.25 | 0.125 | 0.03 | 0.004 | 0.03 | CNC1CCc2sc(-c3ccc4c(=O)c(C(=O)O)cn(C5CC5)c4c3OC)cc2C1.Cl (centres unmarked) [Example 125, 1-cyclopropyl-8-methoxy-7-(5-(methylamino)-4,5,6,7-tetrahydro-1-benzothien-2-yl)-4-oxo-1,4-dihydro-3-quinolinecarboxylic acid hydrochloride]
0.125 | 0.25 | 0.06 | 0.015 | 0.03 | COc1c(-c2cc3c(s2)C(N)C(C)(C)CC3)c(F)cc2c(=O)c(C(=O)O)cn(C3CC3)c12.Cl (centres unmarked) [Example 348, 7-(7-amino-6,6-dimethyl-4,5,6,7-tetrahydro-1-benzothien-2-yl)-1-cyclopropyl-6-fluoro-8-methoxy-4-oxo-1,4-dihydroquinoline-3-carboxylic acid hydrochloride]
0.5 | 0.5 | 0.25 | 0.125 | 0.125 | COc1c(-c2cc3c(s2)CCCC3N(C)C)ccc2c(=O)c(C(=O)O)cn(C3CC3)c12.Cl (centres unmarked) [Example 83, 1-cyclopropyl-7-(4-(dimethylamino)-4,5,6,7-tetrahydro-1-benzothien-2-yl)-8-methoxy-4-oxo-1,4-dihydro-3-quinolinecarboxylic acid hydrochloride]
0.125 | 0.125 | 0.06 | 0.03 | 0.25 | O=C(O)c1cn(C2CC2)c2cc(-c3cc4c(s3)CCCC4O)ccc2c1=O (centres unmarked) [Example 281, 1-cyclopropyl-7-(4-hydroxy-4,5,6,7-tetrahydro-1-benzothien-2-yl)-4-oxo-1,4-dihydroquinoline-3-carboxylic acid]
0.03 | 0.015 | 0.03 | 0.008 | 0.015 | Cl.NC1CCCc2cc(-c3ccc4c(=O)c(C(=O)O)cn(C5CC5)c4n3)sc21 (centres unmarked) [Example 282, 7-(7-amino-4,5,6,7-tetrahydro-1-benzothien-2-yl)-1-cyclopropyl-4-oxo-1,4-dihydro-1,8-naphthyridine-3-carboxylic acid hydrochloride]
0.25 | 1 | 0.125 | 0.03 | 0.25 | COc1c(-c2cc3c(s2)CCC/C3=N\OCc2cccnc2)ccc2c(=O)c(C(=O)O)cn(C3CC3)c12 [Example 182, 1-cyclopropyl-8-methoxy-4-oxo-7-((4E)-4-((3-pyridinylmethoxy)imino)-4,5,6,7-tetrahydro-1-benzothien-2-yl)-1,4-dihydro-3-quinolinecarboxylic acid]
0.5 | 1 | 0.125 | – | 0.5 | COc1c(-c2cc3c(s2)CCCC3=NOCc2ccncc2)ccc2c(=O)c(C(=O)O)cn(C3CC3)c12 [Example 131, 1-cyclopropyl-8-methoxy-4-oxo-7-((4E/Z)-4-((4-pyridinylmethoxy)imino)-4,5,6,7-tetrahydro-1-benzothien-2-yl)-1,4-dihydro-3-quinolinecarboxylic acid]
0.125 | 0.06 | 0.015 | – | 0.125 | COc1c(-c2cc3c(s2)CCCC3CN)ccc2c(=O)c(C(=O)O)cn(C3CC3)c12 (centres unmarked) [Example 130, 7-(4-(aminomethyl)-4,5,6,7-tetrahydro-1-benzothien-2-yl)-1-cyclopropyl-8-methoxy-4-oxo-1,4-dihydro-3-quinolinecarboxylic acid]

SMILES | Antibacterial Activity (MIC's), B [1] [µg/mL] | Antibacterial Activity (MIC's), D (Escherichia coli JUHL) [µg/mL] | Antibacterial Activity (MIC's), E [2] [µg/mL] | Antibacterial Activity (MIC's), A [3] [µg/mL] | Antibacterial Activity (MIC's), F [4] [µg/mL]
CNC(=S)NN=C1CCCc2sc(-c3ccc4c(=O)c(C(=O)O)cn(C5CC5)c4c3OC)cc21 [Example 85] | 0.25 | 0.5 | 0.125 | 0.03 | 0.125
